# Reference: PubChem BioAssay AID2060489 (Molecular Pharmacology Branch, DTP, NCI, 2025)
# System: 922993-354-T-J3-PDC complex spheroids, viability
# Test: Anticancer human tumor 922993-354-T-J3-PDC patient-derived endometrial carcinoma cell line growth inhibition [GQUAD]
# Settings: for IC50: curve of first compound; for viability, T/C: stronger effect = lower value
# Summary of the method: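 Viability of tumor cells grown as complex spheroids with endothelial and stromal cells, exposed to drug combinations. Top concentration at or near clinical Cmax (else 10 microM), diluted in half-log increments.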
# [1] = second compound 0.0316 µM, first compound 0.0316 µM
# [2] = second compound 0.0316 µM, first compound 0.1 µM
# [3] = second compound 0.0316 µM, first compound 0.316 µM
# [4] = second compound 0.0316 µM, first compound 1 µM
# [5] = second compound 0.0316 µM, first compound 3.16 µM
# [6] = second compound 0.0316 µM, first compound 10 µM
# [7] = second compound 0.1 µM, first compound 0.0316 µM
# [8] = second compound 0.1 µM, first compound 0.1 µM
# [9] = second compound 0.1 µM, first compound 0.316 µM
# [10] = second compound 0.1 µM, first compound 1 µM
# [11] = second compound 0.1 µM, first compound 3.16 µM
# [12] = second compound 0.1 µM, first compound 10 µM
# [13] = second compound 0.316 µM, first compound 0.0316 µM
# [14] = second compound 0.316 µM, first compound 0.1 µM
# [15] = second compound 0.316 µM, first compound 0.316 µM
# [16] = second compound 0.316 µM, first compound 1 µM
# [17] = second compound 0.316 µM, first compound 3.16 µM
# [18] = second compound 0.316 µM, first compound 10 µM
# [19] = second compound 1 µM, first compound 0.0316 µM
# [20] = second compound 1 µM, first compound 0.1 µM
# [21] = second compound 1 µM, first compound 0.316 µM
# [22] = second compound 1 µM, first compound 1 µM
# [23] = second compound 1 µM, first compound 3.16 µM
# [24] = second compound 1 µM, first compound 10 µM
# [25] = second compound 3.16 µM, first compound 0.0316 µM
# [26] = second compound 3.16 µM, first compound 0.1 µM
# [27] = second compound 3.16 µM, first compound 0.316 µM
# [28] = second compound 3.16 µM, first compound 1 µM
# [29] = second compound 3.16 µM, first compound 3.16 µM
# [30] = second compound 3.16 µM, first compound 10 µM
# [31] = second compound 10 µM, first compound 0.0316 µM
# [32] = second compound 10 µM, first compound 0.1 µM
# [33] = second compound 10 µM, first compound 0.316 µM
# [34] = second compound 10 µM, first compound 1 µM
# [35] = second compound 10 µM, first compound 3.16 µM
# [36] = second compound 10 µM, first compound 10 µM
# 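Further: spheroids exposed to compounds for seven days.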
# 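Wherever viability, T/C is given: 100% = DMSO vehicle control viability.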
compound,measurement,setting,value
CC(=O)O[C@H]1C(=O)[C@@]2(C)[C@H]([C@H](OC(=O)c3ccccc3)[C@]3(O)C[C@H](OC(=O)[C@H](O)[C@@H](NC(=O)c4ccccc4)c4ccccc4)C(C)=C1C3(C)C)[C@]1(OC(C)=O)CO[C@@H]1C[C@@H]2O + Cc1cnc(CNC(=O)c2c(=O)c3ccc(N4CCCN(C)CC4)nc3n3c2sc2ccccc23)cn1,IC50,second compound 0.0316 µM,8.75 µM
same,IC50,second compound 0.1 µM,9.75 µM
same,IC50,second compound 0.316 µM,< 0.0316 µM
same,IC50,second compound 1 µM,< 0.0316 µM
same,IC50,second compound 3.16 µM,< 0.0316 µM
same,IC50,second compound 10 µM,< 0.0316 µM
same,"viability, T/C",[1],84.5%
same,"viability, T/C",[2],79.3%
same,"viability, T/C",[3],97.9%
same,"viability, T/C",[4],83%
same,"viability, T/C",[5],70.7%
same,"viability, T/C",[6],47.3%
same,"viability, T/C",[7],59.2%
same,"viability, T/C",[8],86.9%
same,"viability, T/C",[9],71.6%
same,"viability, T/C",[10],59.3%
same,"viability, T/C",[11],74.3%
same,"viability, T/C",[12],49.5%
same,"viability, T/C",[13],54.5%
same,"viability, T/C",[14],49.6%
same,"viability, T/C",[15],43.3%
same,"viability, T/C",[16],52.7%
same,"viability, T/C",[17],73.5%
same,"viability, T/C",[18],53.3%
same,"viability, T/C",[19],42.8%
same,"viability, T/C",[20],58%
same,"viability, T/C",[21],51.3%
same,"viability, T/C",[22],46.5%
same,"viability, T/C",[23],53%
same,"viability, T/C",[24],46%
same,"viability, T/C",[25],44.1%
same,"viability, T/C",[26],50.6%
same,"viability, T/C",[27],45.9%
same,"viability, T/C",[28],45.1%
same,"viability, T/C",[29],67.6%
same,"viability, T/C",[30],60.3%
same,"viability, T/C",[31],48.1%
same,"viability, T/C",[32],45.4%
same,"viability, T/C",[33],40.8%
same,"viability, T/C",[34],40.2%
same,"viability, T/C",[35],46.5%
same,"viability, T/C",[36],46.4%
CCCS(=O)(=O)Nc1ccc(F)c(C(=O)c2c[nH]c3ncc(-c4ccc(Cl)cc4)cc23)c1F + Cc1cnc(CNC(=O)c2c(=O)c3ccc(N4CCCN(C)CC4)nc3n3c2sc2ccccc23)cn1,IC50,second compound 0.0316 µM,> 10 µM
same,IC50,second compound 0.1 µM,0.777 µM
same,IC50,second compound 0.316 µM,0.037 µM
same,IC50,second compound 1 µM,0.0642 µM
same,IC50,second compound 3.16 µM,< 0.0316 µM
same,IC50,second compound 10 µM,< 0.0316 µM
same,"viability, T/C",[1],93.5%
same,"viability, T/C",[2],83.8%
same,"viability, T/C",[3],83.3%
same,"viability, T/C",[4],78.4%
same,"viability, T/C",[5],84.6%
same,"viability, T/C",[6],63.8%
same,"viability, T/C",[7],60.9%
same,"viability, T/C",[8],62.2%
same,"viability, T/C",[9],56.1%
same,"viability, T/C",[10],45.5%
same,"viability, T/C",[11],42.2%
same,"viability, T/C",[12],40%
same,"viability, T/C",[13],51.2%
same,"viability, T/C",[14],40.9%
same,"viability, T/C",[15],42.3%
same,"viability, T/C",[16],47.4%
same,"viability, T/C",[17],34.6%
same,"viability, T/C",[18],46.4%
same,"viability, T/C",[19],51.4%
same,"viability, T/C",[20],52.3%
same,"viability, T/C",[21],46.3%
same,"viability, T/C",[22],36.8%
same,"viability, T/C",[23],47.7%
same,"viability, T/C",[24],48.2%
same,"viability, T/C",[25],39.7%
same,"viability, T/C",[26],47.2%
same,"viability, T/C",[27],43.6%
same,"viability, T/C",[28],42%
same,"viability, T/C",[29],58%
same,"viability, T/C",[30],37.9%
same,"viability, T/C",[31],43.5%
same,"viability, T/C",[32],37%
same,"viability, T/C",[33],36.9%
same,"viability, T/C",[34],35.9%
same,"viability, T/C",[35],37.9%
same,"viability, T/C",[36],20.1%
Cc1[nH]c2ccccc2c1CCNCc1ccc(/C=C/C(=O)NO)cc1 + Cc1cnc(CNC(=O)c2c(=O)c3ccc(N4CCCN(C)CC4)nc3n3c2sc2ccccc23)cn1,IC50,second compound 0.0316 µM,> 0.316 µM
same,IC50,second compound 0.1 µM,0.109 µM
same,IC50,second compound 0.316 µM,< 0.000999 µM
same,IC50,second compound 1 µM,< 0.000999 µM
same,IC50,second compound 3.16 µM,< 0.000999 µM
same,IC50,second compound 10 µM,< 0.000999 µM
same,"viability, T/C","second compound 0.0316 µM, first compound 0.000999 µM",81.9%
same,"viability, T/C","second compound 0.0316 µM, first compound 0.00316 µM",86.5%
same,"viability, T/C","second compound 0.0316 µM, first compound 0.00999 µM",108%
same,"viability, T/C",[1],72.6%
same,"viability, T/C","second compound 0.0316 µM, first compound 0.0999 µM",73.5%
same,"viability, T/C",[3],54.3%
same,"viability, T/C","second compound 0.1 µM, first compound 0.000999 µM",55.7%
same,"viability, T/C","second compound 0.1 µM, first compound 0.00316 µM",64.3%
same,"viability, T/C","second compound 0.1 µM, first compound 0.00999 µM",57.6%
same,"viability, T/C",[7],55.8%
same,"viability, T/C","second compound 0.1 µM, first compound 0.0999 µM",47%
same,"viability, T/C",[9],45.4%
same,"viability, T/C","second compound 0.316 µM, first compound 0.000999 µM",54.2%
same,"viability, T/C","second compound 0.316 µM, first compound 0.00316 µM",33.7%
same,"viability, T/C","second compound 0.316 µM, first compound 0.00999 µM",44.2%
same,"viability, T/C",[13],34.7%
same,"viability, T/C","second compound 0.316 µM, first compound 0.0999 µM",40.9%
same,"viability, T/C",[15],30.8%
same,"viability, T/C","second compound 1 µM, first compound 0.000999 µM",42.6%
same,"viability, T/C","second compound 1 µM, first compound 0.00316 µM",46.7%
same,"viability, T/C","second compound 1 µM, first compound 0.00999 µM",38.9%
same,"viability, T/C",[19],34.9%
same,"viability, T/C","second compound 1 µM, first compound 0.0999 µM",33.9%
same,"viability, T/C",[21],31.2%
same,"viability, T/C","second compound 3.16 µM, first compound 0.000999 µM",40.9%
same,"viability, T/C","second compound 3.16 µM, first compound 0.00316 µM",48.6%
same,"viability, T/C","second compound 3.16 µM, first compound 0.00999 µM",41.6%
same,"viability, T/C",[25],41.7%
same,"viability, T/C","second compound 3.16 µM, first compound 0.0999 µM",29.9%
same,"viability, T/C",[27],24.6%
same,"viability, T/C","second compound 10 µM, first compound 0.000999 µM",36%
same,"viability, T/C","second compound 10 µM, first compound 0.00316 µM",40.3%
same,"viability, T/C","second compound 10 µM, first compound 0.00999 µM",44.8%
same,"viability, T/C",[31],30%
same,"viability, T/C","second compound 10 µM, first compound 0.0999 µM",38.9%
same,"viability, T/C",[33],6.92%
